Measured values from patent publication US20180071317A1, “USE OF AGENTS THAT ALTER THE PERITUMORAL ENVIRONMENT FOR THE TREATMENT OF CANCER” (SERVICIO ANDALUZ DE SALUD, priority 2011, published 2018).

Columns and labels:
[1] = test system: fibroblasts of tumors produced by human rhabdomyosarcoma tumor line (A-204); test: Marker expression (IHC) in fibroblasts of tumor or peritumoral area, mouse model, A-204; type: in vivo; conditions: A-204 tumors in mice, 30 mg/kg/day oral, 7 days
Procedure: (§1) In vitro tests conducted in Example 5 are now carried out in an experimental model in mice in vivo. […] Subsequently, the expression in fibroblasts tumoral and peritumoral area of molecular markers associated with progression and maintenance of tumors: TGF-α, TGF-β1, TGF-β2, TGF-β3, MMP-7, MMP-11, MMP-14 were analyzed by immunohistochemistry.
(§2) Were injected with 2×10^7 cells tumors (corresponding, in each case to each of the tumor types as specified in Table 9) in 200 of PBS subcutaneously μl. […] Mice were randomized into two groups when the tumors reached a volume of 75 mm^3 One group was treated with non-peptide receptor antagonists NK1 and the other with placebo 200μ1. […] Tumors and samples of non-neoplastic stromal areas remote from the tumor were halved, formalin fixed (4%) and then were included in paraffin blocks for analysis by immunohistochemistry.
(§3) The expression on fibroblast cells obtained in the animal model was analyzed by immunohistochemistry, of the above markers: TGF-α, TGF-β1, TGF-β2, TGF-β3, MMP-7, MMP-1 1, MMP-14MP-14. Tables 32 to 35 depict the type of label used and the average percentage of fibroblasts present in non-tumor areas, tumor and peritumoral (±SD) which were expressing the marker shown in each of the tumor types developed from of the different cell lines used. This process was realized in mice treated with non-peptide antagonists of NK1 receptor and in untreated animals (control).

[2] = test system: fibroblasts (PHF) co-cultured with tumor cells of human colon adenocarcinoma (SW-403); test: Marker expression (IHC) in PHF co-cultured with SW-403 tumor cells; type: cell-based; conditions: co-culture with SW-403; SP 1 μM + antagonist 1 μM; 48 h
Procedure: All cultures were maintained 48 hours, following which the same cells were included in paraffin blocks for subsequent analysis of the expression of different markers by immunohistochemistry (see Example 1). The primary antibodies used to perform immunohistochemical assays and their concentration are detailed in Example 2. All experiments were carried out sixfold. Analyzed markers in fibroblast cells (stromal cells) were: TGF-α, TGF-β1, TGF-β2, TGF-β3, SPARC, MMP-3, MMP-7, MMP-9, MMP-11, MMP-13 and MMP-14.

[3] = test system: fibroblasts (PHF) co-cultured with tumor cells of human cervix carcinoma (KB); test: Marker expression (IHC) in PHF co-cultured with KB tumor cells; type: cell-based; conditions: co-culture with KB; SP 1 μM + antagonist 1 μM; 48 h;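 note: percentage of PHF fibroblasts showing expression of each marker, cultured in fresh blood plasma from a healthy human donor, six replicates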
Procedure: (§4) All cultures were maintained 48 hours, following which the same cells were included in paraffin blocks for subsequent analysis of the expression of different markers by immunohistochemistry (see Example 1). […] All experiments were carried out sixfold. Analyzed markers in fibroblast cells (stromal cells) were: TGF-α, TGF-β1, TGF-β2, TGF-β3, SPARC, MMP-3, MMP-7, MMP-9, MMP-11, MMP-13 and MMP-14.

[4] = test system: fibroblasts (PHF) co-cultured with tumor cells in human prostate carcinoma (22Rv1); test: Marker expression (IHC) in PHF co-cultured with 22Rv1 tumor cells; type: cell-based; conditions: co-culture with 22Rv1; SP 1 μM + antagonist 1 μM; 48 h;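 note: cultures grown on fresh plasma from a healthy donor, each experiment run sixfold, values give the percentage of fibroblasts positive for the given marker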
Procedure: as §4

[5] = test system: fibroblasts (PHF) co-cultured with human neuroblastoma tumor cells (KELLY); test: Marker expression (IHC) in PHF co-cultured with KELLY tumor cells; type: cell-based; conditions: PHF co-cultured with KELLY + SP + NK1 antagonist;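 note: Co-cultures grown on healthy-donor human blood plasma, run in six replicates, value is percentage of fibroblasts positive for each marker, compared with fibroblasts cultured alone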
Procedure: as §4

[6] = test system: fibroblasts (PHF) co-cultured with human glioma tumor cells (GAMG); test: Marker expression (IHC) in PHF co-cultured with GAMG tumor cells; type: cell-based; conditions: co-culture with GAMG; SP 1 μM + antagonist 1 μM; 48 h;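 note: percentage of PHF fibroblasts positive for each marker, cultured in fresh plasma from a healthy donor, six replicates, with fibroblasts cultured alone as reference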
Procedure: as §4

[7] = test system: fibroblasts (PHF) co-cultured with tumor cells of human breast carcinoma (MCF-7); test: Marker expression (IHC) in PHF co-cultured with MCF-7 tumor cells; type: cell-based; conditions: co-culture with MCF-7; SP 1 μM + antagonist 1 μM; 48 h;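 note: value is the percentage of fibroblasts positive for each marker, with fibroblasts cultured alone as reference, grown in fresh plasma from a healthy donor, six replicates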
Procedure: as §4

[8] = test system: fibroblasts of tumors produced by human glioma tumor line (GAMG); test: Marker expression (IHC) in fibroblasts of tumor or peritumoral area, mouse model, GAMG; type: in vivo; conditions: GAMG tumors in mice, 30 mg/kg/day oral, 7 days
Procedure: as §1, §2, §3

[9] = test system: macrophages in co-culture with cells isolated from primary human tumors; test: Marker expression (IHC) in macrophages co-cultured with primary human tumor cells (colon, breast, ovarian, lung carcinoma, melanoma); type: cell-based; conditions: SP 1 μM + antagonist 1 μM;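 note: macrophages came from pleural or peritoneal washings of the patient who also supplied the tumor cells, and both were co-cultured on fresh blood plasma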
[10] = co-culture with cells isolated from breast carcinoma
[11] = co-culture with cells isolated from colon carcinoma
[12] = co-culture with cells isolated from lung carcinoma
[13] = co-culture with cells isolated from melanoma
[14] = co-culture with cells isolated from ovarian carcinoma

C[C@@H](O[C@H]1OCCN(Cc2n[nH]c(=O)[nH]2)[C@H]1c1ccc(F)cc1)c1cc(C(F)(F)F)cc(C(F)(F)F)c1 [Aprepitant]
0%: fibroblasts expressing MMP-7 [1] | fibroblasts expressing MMP-11 [1] | fibroblasts expressing MMP-14 [1] | fibroblasts expressing TGF-α [1] | fibroblasts expressing TGF-β 1 [1] | fibroblasts expressing TGF-β 2 [1] | fibroblasts expressing TGF-β 3 [1] | PHF cells expressing MMP-3 [2] | PHF cells expressing MMP-7 [2] | PHF cells expressing MMP-9 [2] | PHF cells expressing MMP-11 [2] | PHF cells expressing MMP-13 [2] | PHF cells expressing MMP-14 [2] | PHF cells expressing SPARC [2] | PHF cells expressing TGF-α [2] | PHF cells expressing TGF-β1 [2] | PHF cells expressing TGF-β2 [2] | PHF cells expressing TGF-β3 [2] | PHF cells expressing MMP-3 [3] | PHF cells expressing MMP-7 [3] | PHF cells expressing MMP-9 [3] | PHF cells expressing MMP-11 [3] | PHF cells expressing MMP-13 [3] | PHF cells expressing MMP-14 [3] | PHF cells expressing SPARC [3] | PHF cells expressing TGF-α [3] | PHF cells expressing TGF-β1 [3] | PHF cells expressing TGF-β2 [3] | PHF cells expressing TGF-β3 [3] | PHF cells expressing MMP-3 [4] | PHF cells expressing MMP-7 [4] | PHF cells expressing MMP-9 [4] | PHF cells expressing MMP-11 [4] | PHF cells expressing MMP-13 [4] | PHF cells expressing MMP-14 [4] | PHF cells expressing SPARC [4] | PHF cells expressing TGF-α [4] | PHF cells expressing TGF-β1 [4] | PHF cells expressing TGF-β2 [4] | PHF cells expressing TGF-β3 [4] | cells expressing MMP-3 [5] | cells expressing MMP-7 [5] | cells expressing MMP-9 [5] | cells expressing MMP-11 [5] | cells expressing MMP-13 [5] | cells expressing MMP-14 [5] | cells expressing SPARC [5] | cells expressing TGF-α [5] | cells expressing TGF-β1 [5] | cells expressing TGF-β2 [5] | cells expressing TGF-β3 [5] | PHF cells expressing MMP-3 [6] | PHF cells expressing MMP-7 [6] | PHF cells expressing MMP-9 [6] | PHF cells expressing MMP-11 [6] | PHF cells expressing MMP-13 [6] | PHF cells expressing MMP-14 [6] | PHF cells expressing SPARC [6] | PHF cells expressing TGF-α [6] | PHF cells expressing TGF-β1 [6] | PHF cells expressing TGF-β2 [6] | PHF cells expressing TGF-β3 [6] | PHF cells expressing MMP-3 [7] | PHF cells expressing MMP-7 [7] | PHF cells expressing MMP-9 [7] | PHF cells expressing MMP-11 [7] | PHF cells expressing MMP-13 [7] | PHF cells expressing MMP-14 [7] | PHF cells expressing SPARC [7] | PHF cells expressing TGF-α [7] | PHF cells expressing TGF-β1 [7] | PHF cells expressing TGF-β2 [7] | PHF cells expressing TGF-β3 [7] | fibroblasts expressing MMP-7 [8] | fibroblasts expressing MMP-11 [8] | fibroblasts expressing MMP-14 [8] | fibroblasts expressing TGF-α [8] | fibroblasts expressing TGF-β 1 [8] | fibroblasts expressing TGF-β 2 [8] | fibroblasts expressing TGF-β 3 [8] | Percentage of macrophages which expressed EGF [9, 10] | Percentage of macrophages which expressed MMP-9 [9, 10] | Percentage of macrophages which expressed VEGF [9, 10] | Percentage of macrophages which expressed EGF [9, 11] | Percentage of macrophages which expressed MMP-9 [9, 11] | Percentage of macrophages which expressed VEGF [9, 11] | Percentage of macrophages which expressed EGF [9, 12] | Percentage of macrophages which expressed MMP-9 [9, 12] | Percentage of macrophages which expressed VEGF [9, 12] | Percentage of macrophages which expressed EGF [9, 13] | Percentage of macrophages which expressed MMP-9 [9, 13] | Percentage of macrophages which expressed VEGF [9, 13] | Percentage of macrophages which expressed EGF [9, 14] | Percentage of macrophages which expressed MMP-9 [9, 14] | Percentage of macrophages which expressed VEGF [9, 14]

CC(=O)N1CCN([C@H]2CCN(C(=O)N(C)[C@H](C)c3cc(C(F)(F)F)cc(C(F)(F)F)c3)[C@@H](c3ccc(F)cc3C)C2)CC1 [Casopitant]
0%: fibroblasts expressing MMP-7 [1] | fibroblasts expressing MMP-11 [1] | fibroblasts expressing MMP-14 [1] | fibroblasts expressing TGF-α [1] | fibroblasts expressing TGF-β 1 [1] | fibroblasts expressing TGF-β 2 [1] | fibroblasts expressing TGF-β 3 [1] | PHF cells expressing MMP-3 [2] | PHF cells expressing MMP-7 [2] | PHF cells expressing MMP-9 [2] | PHF cells expressing MMP-11 [2] | PHF cells expressing MMP-13 [2] | PHF cells expressing MMP-14 [2] | PHF cells expressing SPARC [2] | PHF cells expressing TGF-α [2] | PHF cells expressing TGF-β1 [2] | PHF cells expressing TGF-β2 [2] | PHF cells expressing TGF-β3 [2] | PHF cells expressing MMP-3 [3] | PHF cells expressing MMP-7 [3] | PHF cells expressing MMP-9 [3] | PHF cells expressing MMP-11 [3] | PHF cells expressing MMP-13 [3] | PHF cells expressing MMP-14 [3] | PHF cells expressing SPARC [3] | PHF cells expressing TGF-α [3] | PHF cells expressing TGF-β1 [3] | PHF cells expressing TGF-β2 [3] | PHF cells expressing TGF-β3 [3] | PHF cells expressing MMP-3 [4] | PHF cells expressing MMP-7 [4] | PHF cells expressing MMP-9 [4] | PHF cells expressing MMP-11 [4] | PHF cells expressing MMP-13 [4] | PHF cells expressing MMP-14 [4] | PHF cells expressing SPARC [4] | PHF cells expressing TGF-α [4] | PHF cells expressing TGF-β1 [4] | PHF cells expressing TGF-β2 [4] | PHF cells expressing TGF-β3 [4] | cells expressing MMP-3 [5] | cells expressing MMP-7 [5] | cells expressing MMP-9 [5] | cells expressing MMP-11 [5] | cells expressing MMP-13 [5] | cells expressing MMP-14 [5] | cells expressing SPARC [5] | cells expressing TGF-α [5] | cells expressing TGF-β1 [5] | cells expressing TGF-β2 [5] | cells expressing TGF-β3 [5] | PHF cells expressing MMP-3 [6] | PHF cells expressing MMP-7 [6] | PHF cells expressing MMP-9 [6] | PHF cells expressing MMP-11 [6] | PHF cells expressing MMP-13 [6] | PHF cells expressing MMP-14 [6] | PHF cells expressing SPARC [6] | PHF cells expressing TGF-α [6] | PHF cells expressing TGF-β1 [6] | PHF cells expressing TGF-β2 [6] | PHF cells expressing TGF-β3 [6] | PHF cells expressing MMP-3 [7] | PHF cells expressing MMP-7 [7] | PHF cells expressing MMP-9 [7] | PHF cells expressing MMP-11 [7] | PHF cells expressing MMP-13 [7] | PHF cells expressing MMP-14 [7] | PHF cells expressing SPARC [7] | PHF cells expressing TGF-α [7] | PHF cells expressing TGF-β1 [7] | PHF cells expressing TGF-β2 [7] | PHF cells expressing TGF-β3 [7] | fibroblasts expressing MMP-7 [8] | fibroblasts expressing MMP-11 [8] | fibroblasts expressing MMP-14 [8] | fibroblasts expressing TGF-α [8] | fibroblasts expressing TGF-β 1 [8] | fibroblasts expressing TGF-β 2 [8] | fibroblasts expressing TGF-β 3 [8] | Percentage of macrophages which expressed EGF [9, 10] | Percentage of macrophages which expressed MMP-9 [9, 10] | Percentage of macrophages which expressed VEGF [9, 10] | Percentage of macrophages which expressed EGF [9, 11] | Percentage of macrophages which expressed MMP-9 [9, 11] | Percentage of macrophages which expressed VEGF [9, 11] | Percentage of macrophages which expressed EGF [9, 12] | Percentage of macrophages which expressed MMP-9 [9, 12] | Percentage of macrophages which expressed VEGF [9, 12] | Percentage of macrophages which expressed EGF [9, 13] | Percentage of macrophages which expressed MMP-9 [9, 13] | Percentage of macrophages which expressed VEGF [9, 13] | Percentage of macrophages which expressed EGF [9, 14] | Percentage of macrophages which expressed MMP-9 [9, 14] | Percentage of macrophages which expressed VEGF [9, 14]
